Assays:
[1] = biological target: Muscarinic acetylcholine receptor; assay: Inhibition of [3H]- Oxo-M binding to muscarinic receptor of rat brain membrane preparations
[2] = biological target: Muscarinic acetylcholine receptor; assay: Inhibition of [3H]QNB binding to muscarinic receptor of rat brain membrane preparation.
[3] = biological target: T1, Muscarinic acetylcholine receptor M3 (Rattus norvegicus, UniProt P08483); assay: Inhibition of [3H]QNB binding to m3 receptor transfected with CHO cell; type: cell-based
T1 sequence (P08483 whole entry): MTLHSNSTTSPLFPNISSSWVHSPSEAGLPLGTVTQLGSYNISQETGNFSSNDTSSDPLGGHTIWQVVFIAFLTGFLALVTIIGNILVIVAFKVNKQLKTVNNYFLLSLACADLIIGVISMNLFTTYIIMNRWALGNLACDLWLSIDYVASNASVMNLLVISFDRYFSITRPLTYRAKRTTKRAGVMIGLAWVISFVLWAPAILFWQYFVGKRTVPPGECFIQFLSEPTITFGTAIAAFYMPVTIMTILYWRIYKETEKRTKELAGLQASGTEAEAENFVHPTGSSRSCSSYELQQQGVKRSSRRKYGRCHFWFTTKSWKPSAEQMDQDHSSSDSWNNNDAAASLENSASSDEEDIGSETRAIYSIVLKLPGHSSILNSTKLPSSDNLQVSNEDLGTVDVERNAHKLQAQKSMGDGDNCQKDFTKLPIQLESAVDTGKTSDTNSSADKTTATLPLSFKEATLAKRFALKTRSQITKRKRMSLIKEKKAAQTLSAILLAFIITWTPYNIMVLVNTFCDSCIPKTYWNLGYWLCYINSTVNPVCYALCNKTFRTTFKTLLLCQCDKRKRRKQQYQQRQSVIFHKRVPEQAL

[4] = biological target: Muscarinic acetylcholine receptor; assay: Inhibition of [3H]QNB binding to muscarinic receptor of rat heart membrane preparation.
[5] = biological target: T2, Muscarinic acetylcholine receptor M1 (Rattus norvegicus, UniProt P08482); assay: Inhibition of [3H]QNB binding to Muscarinic acetylcholine receptor M1 transfected with CHO cell; type: cell-based
T2 sequence (P08482 whole entry): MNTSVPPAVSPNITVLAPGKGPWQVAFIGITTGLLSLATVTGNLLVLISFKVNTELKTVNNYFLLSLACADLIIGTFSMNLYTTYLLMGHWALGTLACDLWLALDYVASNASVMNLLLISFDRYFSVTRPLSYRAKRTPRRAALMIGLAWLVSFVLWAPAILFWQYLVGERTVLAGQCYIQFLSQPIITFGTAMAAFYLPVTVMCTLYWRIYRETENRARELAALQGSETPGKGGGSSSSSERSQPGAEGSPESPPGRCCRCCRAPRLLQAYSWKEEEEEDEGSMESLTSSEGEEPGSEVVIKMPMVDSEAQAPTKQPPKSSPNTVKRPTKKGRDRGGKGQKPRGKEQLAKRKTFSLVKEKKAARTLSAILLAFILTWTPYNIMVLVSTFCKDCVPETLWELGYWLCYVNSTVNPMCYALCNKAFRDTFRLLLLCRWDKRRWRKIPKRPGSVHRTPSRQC

[6] = biological target: T1, Muscarinic acetylcholine receptor M3; assay: Inhibition of [3H]QNB binding to Muscarinic acetylcholine receptor M3 transfected with CHO cell; type: cell-based

Row | Compound | Ki [1] [µM] | Ki [2] [µM] | Ki [3] [µM] | Ki [4] [µM] | Ki [5] [µM] | Ki [6] [µM]
1 | CC(=O)O[C@H]1CC2CC1N(Cc1ccccc1)C2 (stereo partly specified) | 7.21 | 6.63 | 18.8 | 15.1 | 7.01 | –
2 | CN1CC2CC1C[C@H]2OC(=O)C(C)(c1ccccc1)c1ccccc1 (stereo partly specified) | – | – | – | 0.00118 | 0.000423 | 0.000522
3 | CC(=O)O[C@@H]1CC2CC1CN2C (stereo partly specified) | 1.43 | 11.5 | – | 17.4 | 21.9 | 27.7
4 | CC(=O)OC1CC2CC1N(C)C2 (stereo unspecified) | 5.37 | 17.5 | – | 24.9 | 21.6 | 28
5 | CN1CC2CC1C[C@@H]2OC(=O)C(C)(c1ccccc1)c1ccccc1 (stereo partly specified) | – | – | – | 0.00407 | 0.000876 | 0.000533
6 | CC(=O)O[C@H]1CC2CC1CN2C (stereo partly specified) | 0.23 | 9.84 | – | 10.1 | 17.5 | 12
7 | CC(=O)OC1CC2CC1CN2Cc1ccccc1 (stereo unspecified) | 1.56 | 14.8 | – | 10.3 | 18.9 | 26.9
8 | CC(=O)O[C@@H]1CC2CC1N(Cc1ccccc1)C2 (stereo partly specified) | 2.57 | 20 | – | 15.3 | 2.26 | 47.6

Source: ChEMBL document CHEMBL1126236, “Synthesis and muscarinic receptor activity of ester derivatives of 2-substituted 2-azabicyclo[2.2.1]heptan-5-ol and -6-ol” (J Med Chem, 1992)
